“Also recorded” adds a separate entry of the source. Ends that are not written are not given here.
Columns and labels:
S. aureus ATCC 6538 [1] = test: Antimicrobial activity test on inoculated M17 agar plates (inhibition halo); assay type: cell-based, Staphylococcus aureus; conditions: for antimicrobial activity of variants (inhibition halo): 5 μl of 1 mg/ml aqueous solution on M17 agar plates of S. aureus ATCC 6538, overnight incubation, compared with SEQ ID NO: 1
Description: (§1) Bacterial strains were grown overnight in liquid culture on rotary shakers or on agar plates using M17 media supplemented with 0.5% glucose. S. aureus ATCC 6538 and S. epidermidis ATCC 12228 liquid cultures and agar plates were grown anaerobically at 37° C. Culture volume utilized in MIC assays was 200 μl.
(§2) Antimicrobial activities of bacteriocins were tested on M17 agar plates in Examples 1 and 3. In Example 1, 2 μl of bacteriocin peptide (SEQ ID NO: 1) aqueous solutions at a concentration of 1 mg/ml were deposited on inoculated M17 agar plates of S. aureus ATCC 6538 and S. epidermidis ATCC 12228. An equivalent amount of aureocin A53 aqueous solution (1 mg/ml concentration) was used as positive control. In the case of S. epidermidis ATCC 12228, an equivalent amount of pediocin A1 aqueous solution (1 mg/ml concentration) was used as negative control.
In Example 3, 5 μl of bacteriocin peptides (SEQ ID NO: 1, 3-97) aqueous solutions at a concentration of 1 mg/ml were deposited on inoculated M17 agar plates of S. aureus ATCC 6538. After overnight incubation, the presence of an inhibition halo was considered as a positive result of antimicrobial activity.

[2] = test system: S. epidermidis ATCC 12228; test: MIC assay in liquid cultures (endpoint OD600); assay type: cell-based, Staphylococcus epidermidis; conditions: liquid culture, concentrations 0.49 to 500 μg/ml
Description: as §1
(§3) Determination of bacteriocin (SEQ ID NO: 1) MIC values was performed in liquid cultures. Growth was assessed by measuring endpoint OD600 values in a Spectramax i3 (Molecular Devices, CA, USA). Minimum inhibitory concentration (MIC) was defined as the lowest concentration of bacteriocin which inhibited 50% of the growth of cultures as compared to reference cultures not exposed to the bacteriocin. Concentration of the bacteriocin in well 11 was 250 μg/ml in the case of S. aureus ATCC 6538 and 500 μg/ml in the case of S. epidermidis ATCC 12228, diluted 2-fold per subsequent well as shown in Table 3 (concentrations rounded to the second decimal): […]

S. aureus ATCC 6538 [3] = test: MIC assay in liquid cultures (endpoint OD600); assay type: cell-based, Staphylococcus aureus; conditions: calculated as average concentration between wells 10 and 11
Description: as §1, §3

[4] = test system: S. epidermidis ATCC 12228; test: Antimicrobial activity test on inoculated M17 agar plates (inhibition halo); assay type: cell-based, Staphylococcus epidermidis; conditions: 2 μl of 1 mg/ml aqueous solution on inoculated M17 agar plate, overnight incubation
Description: as §1, §2

## MLAFLKLVAKLGPKAAKWAWANKGKVLGWIRDGLAIINKINDIVN [SEQ ID NO: 62]
S. aureus ATCC 6538 [1]
  antimicrobial activity of variants (inhibition halo): did not compromise its antimicrobial activity

## MLAFLKLVAKLGPKAAKWAWANKGKVLGWIRDGLAIDWIINKINDIVN [SEQ ID NO: 1]
[2]
  growth inhibition in MIC assay: No growth inhibition was observed
S. aureus ATCC 6538 [3]
  MIC (lowest concentration inhibiting 50% of culture growth): 188 µg/mL
S. aureus ATCC 6538 [1]; 2 μl of 1 mg/ml aqueous solution on inoculated M17 agar plate, overnight incubation, S. aureus ATCC 6538
  inhibition halo on agar plate: An inhibition halo was visible
[4]
  inhibition halo on agar plate: no inhibition halo was visible; also recorded: no inhibition halo was present

## aureocin A53 [reference compound]
[4]
  inhibition halo on agar plate: an inhibition halo was present

## MAFLKLVAKLGPKAAKWAWANKGKVLGWIRDGLAIDWIINKINDIVN [SEQ ID NO: 54]
S. aureus ATCC 6538 [1]
  antimicrobial activity of variants (inhibition halo): did not compromise its antimicrobial activity

## pediocin A1 [reference compound]
[4]
  inhibition halo on agar plate: no inhibition halo was visible

## MLFLKLVAKLGPKAAKWAWANKGKVLGWIRDGLAIDWIINKINDIVN [SEQ ID NO: 55]
S. aureus ATCC 6538 [1]
  antimicrobial activity of variants (inhibition halo): did not compromise its antimicrobial activity

Source: patent US20240285726A1, “Bacteriocin for new application” (Syngulon S.A., priority 2021, published 2024)
